Reference: patent publication US11447533B2, “Antimicrobial and anticancer peptides and conjugates and compositions, methods, articles and kits relating thereto” (George Mason Research Foundation, Inc., priority 2018, dated 2022)
“Also recorded” adds a separate entry of the source.

What was measured:
E. coli ATCC 25922 = experiment: Antimicrobial efficacy (resazurin virtual colony count); format: cell-based, Escherichia coli; details: for increase of EC50 in presence of albumin relative to EC50 in DPBS: DPBS + 4% (w/v) bovine serum albumin versus DPBS; for decrease of efficacy in DPBS relative to 10 mM Na-PO4: DPBS versus 10 mM Na-PO4; for decrease of efficacy under physiologically relevant ionic conditions: PBS versus low ionic conditions
[1] = system: E. coli ML35p outer membrane; experiment: NPN assay, outer membrane perturbation; format: cell-based, Escherichia coli; details: 25 μM peptide, 25 μM PMB = 100%
Description: Interactions with Bacterial Membranes. Interaction of the peptides with bacterial membranes in different phosphate buffers were evaluated using E. coli ML35p, constructed in our laboratory. At first, competent cells of E. coli ML35 were produced by conventional competent cell preparation method, then transformed with pBR322 plasmid. Transformed colonies were selected after growing on Luria-agar containing 50 μg/mL ampicillin. A single transformed colony was grown in presence of ampicillin first in Luria broth and then in MHBII and stored as 20% glycerol stock at −80° C. This frozen stock, on the day of the experiment, was thawed and grown in MHBII containing ampicillin up to OD600 nm=0.8-0.9, washed with PBS and then suspended in the respective buffer up to the required OD600 nm for use.
NPN Assay. The outer membrane perturbation of bacteria was evaluated by incubating E. coli ML35p with peptides in presence of NPN. 100 mM NPN in acetone was supplemented proportionately to a bacterial suspension of OD600 nm˜0.5 to achieve a final concentration of 20 μM of NPN and the mixture was equilibrated for 30 mins. Then, 90 μL of the bacterial suspension containing 20 μM NPN was added with 10 μL of 250 μM peptide (10×) solution in water and scanned for fluorescence intensity (excitation=350 nm, emission=420 nm). The % Perturbation was calculated by considering PMB to be causing 100% Perturbation and water (without peptide) as 0% Perturbation. Each peptide was tested in triplicate in each of the three phosphate buffers used.
When peptides partition from the bulk aqueous environment to the cellular membranes, they may cause small defects in the membrane organization, a signature of adsorption of the peptides into the membranes. Such small defects are called membrane perturbations and can be evaluated by utilizing molecular probes. One such molecular probe is NPN, which is a hydrophobic molecule and is usually repelled to enter the hydrophobic interiors of the membrane by the polar headgroups of membrane-lipids. However, when small defects and gaps are caused during the adsorption of the peptides into the membranes, NPN can enter through those defects and in the hydrophobic environment of the membrane interior the molecule fluoresces, which can be measured for quantification of the extent of membrane-perturbation and peptide adsorption in the cellular membrane.

[2] = DPBS (with Ca++ and Mg++), pH 7.4
[3] = PBS (high / physiologically relevant ionic strength), pH 7.4

Sequence	antimicrobial efficacy, in words (E. coli ATCC 25922; [2])	antimicrobial efficacy, in words (E. coli ATCC 25922; [3])	membrane perturbation with respect to PMB ([1]; DPBS)	membrane perturbation with respect to PMB ([1]; PBS)	increase of EC50 in presence of albumin relative to EC50 in DPBS (E. coli ATCC 25922)	decrease of efficacy in DPBS relative to 10 mM Na-PO4 (E. coli ATCC 25922)	decrease of efficacy under physiologically relevant ionic conditions (E. coli ATCC 25922)	membrane perturbation with respect to PMB ([1]; 10 mM phosphate buffer)	antimicrobial efficacy, in words (E. coli ATCC 25922; serum)	membrane perturbation with respect to PMB ([1]; DPBS, listed as ATRA-R3W2) [%]
KRAKKFFKKLK (SEQ ID NO: 4) [ATRA1-A]	lose activity in DPBS	retained some antimicrobial activity	less effective at perturbing the outer membrane than ATRA-1	–	–	–	–	–	–	–
KRAKKFFKRLK (SEQ ID NO: 6) [ATRA1-AR]	–	completely ineffective	–	decreased slightly	–	–	–	–	–	–
KRFKKFFKKLK (SEQ ID NO: 2) [ATRA1, first 11 residues of NA-CATH]	lose activity in DPBS; also recorded: lost antimicrobial property	effective in PBS	less than 50%	perturbed comparable to PMB	–	–	–	–	–	–
KRFKKFFKKLKGGVIGVTFPF (SEQ ID NO: 38) [ATRA1-HYD, ATRA1 with hydrophobic tail of NA-CATH joined at the C-terminus by a short -GG- segment]	–	–	~75%	–	approximately 2 fold	~10 fold	–	–	–	–
KRFKKFFKKLKNSVKKRAKKFFKKPK (SEQ ID NO: 53) [NA-CATH26, first 26 residues of NA-CATH]	–	–	–	perturbed outer membrane greater than PMB	–	~14 fold	approximately 2 fold	higher degree of membrane perturbations than PMB	–	–
KRWKKWWKKWK (SEQ ID NO: 14) [ATRA1-W4]	most effective in DPBS	–	higher OM perturbation than ATRA1	–	–	–	–	–	–	–
RRFKRFFKRLK (SEQ ID NO: 9) [ATRA1-R3]	significantly reduced in DPBS relative to its activity in PBS	–	higher OM perturbation than ATRA1	–	–	–	–	–	–	–
RRFRRFFRRLR (SEQ ID NO: 10) [ATRA1-R6]	highly effective in DPBS	–	higher OM perturbation than ATRA1	decreased slightly	–	–	–	–	–	–
RRWKRFFKRWK (SEQ ID NO: 15) [ATRA1-R3W2]	more effective than either of its parent peptides	–	higher OM perturbation than ATRA1	perturbed comparable to PMB	~5 fold	approximately 3 fold	–	–	no antimicrobial property	~65
RRWKRFFKRWKGGVIGVTFPF (SEQ ID NO: 50) [ATRA1-R3W2-HYD, ATRA1-R3W2 with hydrophobic tail of NA-CATH joined by -GG-]	–	–	~100%	comparable to PMB	did not demonstrate significant changes in EC50 values	–	~5 fold	75%	–	–
